Assay: xn = mol fraction of the nth substance listed

C1CCOC1 + O
Conditions	viscosity [mPa·s]
298 K, 101 kPa, x2 = 0.217	0.5842
298 K, 101 kPa, x2 = 0.284	0.6433
298 K, 101 kPa, x2 = 0.331	0.6715
298 K, 101 kPa, x2 = 0.3845	0.7352
298 K, 101 kPa, x2 = 0.4994	0.9349
298 K, 101 kPa, x2 = 0.6293	1.22
298 K, 101 kPa, x2 = 0.8001	1.681
298 K, 101 kPa, x2 = 0.8523	1.745
298 K, 101 kPa, x2 = 0.9073	1.658
298.15 K, 101 kPa, x1 = 0.02	1.157
298.15 K, 101 kPa, x1 = 0.05	1.464
298.15 K, 101 kPa, x1 = 0.07	1.62
298.15 K, 101 kPa, x1 = 0.1001	1.749
298.15 K, 101 kPa, x1 = 0.1199	1.79
298.15 K, 101 kPa, x1 = 0.1499	1.796
298.15 K, 101 kPa, x1 = 0.1699	1.783
298.15 K, 101 kPa, x1 = 0.2	1.723
298.15 K, 101 kPa, x1 = 0.2199	1.671
298.15 K, 101 kPa, x1 = 0.25	1.586
298.15 K, 101 kPa, x1 = 0.2701	1.538
298.15 K, 101 kPa, x1 = 0.3002	1.445
298.15 K, 101 kPa, x1 = 0.3499	1.313
298.15 K, 101 kPa, x1 = 0.3999	1.172
298.15 K, 101 kPa, x1 = 0.4499	1.039
298.15 K, 101 kPa, x1 = 0.5001	0.9437
298.15 K, 101 kPa, x1 = 0.5998	0.7744
298.15 K, 101 kPa, x1 = 0.7001	0.65
298.15 K, 101 kPa, x1 = 0.8001	0.5622
298.15 K, 101 kPa, x1 = 0.9	0.4979
298.15 K, 101 kPa, x2 = 0.31	0.6564
298.15 K, 101 kPa, x2 = 0.5	0.9237
298.15 K, 101 kPa, x2 = 0.63	1.224
298.15 K, 101 kPa, x2 = 0.68	1.399
298.15 K, 101 kPa, x2 = 0.73	1.49
298.15 K, 101 kPa, x2 = 0.77	1.582
298.15 K, 101 kPa, x2 = 0.8	1.678
298.15 K, 101 kPa, x2 = 0.83	1.701
298.15 K, 101 kPa, x2 = 0.86	1.732
298.15 K, 101 kPa, x2 = 0.9	1.68
298.15 K, 101 kPa, x2 = 0.94	1.49
298.15 K, 101 kPa, x2 = 0.97	1.202
298.15 K, 101.32 kPa, x1 = 0.0423	1.362
298.15 K, 101.32 kPa, x1 = 0.0812	1.647
298.15 K, 101.32 kPa, x1 = 0.1809	1.741
298.15 K, 101.32 kPa, x1 = 0.3559	1.285
298.15 K, 101.32 kPa, x1 = 0.5248	0.892
298.15 K, 101.32 kPa, x1 = 0.7342	0.638
298.15 K, 101.32 kPa, x1 = 0.8468	0.554
298.15 K, 101.32 kPa, x2 = 0.0008	0.47
298.15 K, 101.33 kPa, x2 = 0.111	0.515
298.15 K, 101.33 kPa, x2 = 0.197	0.565
298.15 K, 101.33 kPa, x2 = 0.3027	0.65
298.15 K, 101.33 kPa, x2 = 0.4036	0.763
298.15 K, 101.33 kPa, x2 = 0.5028	0.916
298.15 K, 101.33 kPa, x2 = 0.6047	1.129
298.15 K, 101.33 kPa, x2 = 0.7032	1.394
298.15 K, 101.33 kPa, x2 = 0.8017	1.651
298.15 K, 101.33 kPa, x2 = 0.9013	1.665
303.15 K, 101 kPa, x1 = 0.02	1.025
303.15 K, 101 kPa, x1 = 0.05	1.276
303.15 K, 101 kPa, x1 = 0.07	1.398
303.15 K, 101 kPa, x1 = 0.1001	1.514
303.15 K, 101 kPa, x1 = 0.1199	1.549
303.15 K, 101 kPa, x1 = 0.1499	1.558
303.15 K, 101 kPa, x1 = 0.1699	1.55
303.15 K, 101 kPa, x1 = 0.2	1.504
303.15 K, 101 kPa, x1 = 0.2199	1.466
303.15 K, 101 kPa, x1 = 0.25	1.395
303.15 K, 101 kPa, x1 = 0.2701	1.358
303.15 K, 101 kPa, x1 = 0.3002	1.281
303.15 K, 101 kPa, x1 = 0.3499	1.174
303.15 K, 101 kPa, x1 = 0.3999	1.056
303.15 K, 101 kPa, x1 = 0.4499	0.9408
303.15 K, 101 kPa, x1 = 0.5001	0.8597
303.15 K, 101 kPa, x1 = 0.5998	0.7127
303.15 K, 101 kPa, x1 = 0.7001	0.6034
303.15 K, 101 kPa, x1 = 0.8001	0.5252
303.15 K, 101 kPa, x1 = 0.9	0.4699
303.15 K, 101.33 kPa, x1 = 0.0971	1.444
303.15 K, 101.33 kPa, x1 = 0.1497	1.523
303.15 K, 101.33 kPa, x1 = 0.2011	1.477
303.15 K, 101.33 kPa, x1 = 0.3057	1.257
303.15 K, 101.33 kPa, x1 = 0.3979	1.04
303.15 K, 101.33 kPa, x1 = 0.4978	0.8602
303.15 K, 101.33 kPa, x1 = 0.6026	0.7189
303.15 K, 101.33 kPa, x1 = 0.7025	0.6137
303.15 K, 101.33 kPa, x1 = 0.8003	0.5413
303.15 K, 101.33 kPa, x1 = 0.8978	0.4813
308.15 K, 101 kPa, x1 = 0.02	0.9079
308.15 K, 101 kPa, x1 = 0.05	1.124
308.15 K, 101 kPa, x1 = 0.07	1.227
308.15 K, 101.33 kPa, x1 = 0.0971	1.256
308.15 K, 101.33 kPa, x1 = 0.1497	1.329
308.15 K, 101.33 kPa, x1 = 0.2011	1.301
308.15 K, 101.33 kPa, x1 = 0.3057	1.12
308.15 K, 101.33 kPa, x1 = 0.3979	0.9414
308.15 K, 101.33 kPa, x1 = 0.4978	0.7881
308.15 K, 101.33 kPa, x1 = 0.6026	0.6666
308.15 K, 101.33 kPa, x1 = 0.7025	0.5723
308.15 K, 101.33 kPa, x1 = 0.8003	0.5085
308.15 K, 101.33 kPa, x1 = 0.8978	0.4554
313.15 K, 101.33 kPa, x1 = 0.1497	1.171
313.15 K, 101.33 kPa, x1 = 0.2011	1.154
313.15 K, 101.33 kPa, x1 = 0.3057	1.01
313.15 K, 101.33 kPa, x1 = 0.3979	0.8555
313.15 K, 101.33 kPa, x1 = 0.4978	0.724
313.15 K, 101.33 kPa, x1 = 0.6026	0.6175
313.15 K, 101.33 kPa, x1 = 0.7025	0.5361
313.15 K, 101.33 kPa, x1 = 0.8003	0.4788
313.15 K, 101.33 kPa, x1 = 0.8978	0.4306
318.15 K, 101.33 kPa, x1 = 0.0971	0.9839
318.15 K, 101.33 kPa, x1 = 0.1497	1.041
318.15 K, 101.33 kPa, x1 = 0.2011	1.037
318.15 K, 101.33 kPa, x1 = 0.3057	0.9172
318.15 K, 101.33 kPa, x1 = 0.3979	0.7829
318.15 K, 101.33 kPa, x1 = 0.4978	0.6687
318.15 K, 101.33 kPa, x1 = 0.6026	0.576
318.15 K, 101.33 kPa, x1 = 0.7025	0.5036
318.15 K, 101.33 kPa, x1 = 0.8003	0.452
318.15 K, 101.33 kPa, x1 = 0.8978	0.4089
323.15 K, 101.33 kPa, x1 = 0.0971	0.8801
323.15 K, 101.33 kPa, x1 = 0.1497	0.9355
323.15 K, 101.33 kPa, x1 = 0.2011	0.9367
323.15 K, 101.33 kPa, x1 = 0.3057	0.8382
323.15 K, 101.33 kPa, x1 = 0.3979	0.7216
323.15 K, 101.33 kPa, x1 = 0.4978	0.621
323.15 K, 101.33 kPa, x1 = 0.6026	0.5365
323.15 K, 101.33 kPa, x1 = 0.7025	0.4716
323.15 K, 101.33 kPa, x1 = 0.8003	0.4277
323.15 K, 101.33 kPa, x1 = 0.8978	0.3879
